Laboratory results as given in patent publication US20240239792A1, “MODULATORS OF BCL-2 OR BCL-2/BCL-XL AND USES THEREOF” (APPICINE THERAPEUTICS (HK) LIMITED, priority 2021, published 2024).

Tests used:
BCL-2 = target: T1, BCL-2 (Homo sapiens, UniProt P10415); assay: HTRF BCL-2/BAK assay (Cisbio); assay type: binding; conditions: recombinant human Tag1-BCL-2 2 nM, Tag2-BAK 10 nM
T1 construct: purchased Cisbio 63ADK000CB01PEG
Description: Then the pre-mixed anti-Tag1-Eu^3+ and anti-tag2-XL665 were added to the plate and further incubated at room temperature for another 2 hours. The signals ([…]) were read on Envision 2104 instrument. The IC50 for each compound was derived from fitting the signal of 665/615 nM to the increasing compound concentration.
Using the above assays, the following compounds were tested.

DOHH2 cells = assay: CellTiter-Glo cell proliferation assay, DOHH2 cells; assay type: cell-based; conditions: Homo sapiens, DOHH-2, 72 hours
Description: The CellTiter-Glo® Luminescent Cell Viability Assay (Promega, G7573) was used to study the cellular potency of disclosed compounds herein. The cells were harvested during the logarithmic growth period and counted with hemocytometer. The DOHH2 cells were seeded at 1.6*10^4 in 90 ul DMEM medium supplemented with 10% fetal bovine serum (FBS) (as RS4;11 cells were seeded at 4000 in 90 ul RPMI-1640 medium with 10% FBS) per well in 96-well plates and treated with 10 ul of a serial dilution of compounds disclosed herein (maximum concentration and dilution ratio determined by the results of pre-experiment may vary) for 72 hours in a 5% CO2 incubator at 37° C. Cell viability was assessed according to the manufacturer's recommendations. After the plates return to the room temperature, 100 ul of CellTiter-Glo® reagent was added to 100 ul of cell culture. The mixture was agitated on an orbital shaker for 2 minutes or placed it at room temperature for 10 minutes to allow cell lysis and stabilization of luminescent signals. Luminescent signals were recorded using Envision 2104 instrument. And GI50 values were then calculated.

T1 sequence (P10415 whole entry): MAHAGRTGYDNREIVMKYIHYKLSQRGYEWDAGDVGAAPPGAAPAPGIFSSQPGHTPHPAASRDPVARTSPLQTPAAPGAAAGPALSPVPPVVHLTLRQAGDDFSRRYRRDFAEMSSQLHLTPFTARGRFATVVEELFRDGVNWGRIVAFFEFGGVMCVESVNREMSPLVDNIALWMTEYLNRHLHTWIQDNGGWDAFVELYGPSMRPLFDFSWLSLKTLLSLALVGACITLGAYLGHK

Row | Structure (SMILES) | IC50 (BCL-2) [µM] | GI50 (DOHH2 cells) [µM]
1 | O=C(NS(=O)(=O)c1ccc(NCC2CCOCC2)c([N+](=O)[O-])c1)c1ccc(N2CCN(C3CCc4ccccc43)CC2)cc1Oc1cnc2[nH]ccc2c1 (stereo not shown) [Compound 4, 2-((1H-pyrrolo[2,3-b]pyridin-5-yl)oxy)-4-(4-(2,3-dihydro-1H-inden-1-yl)piperazin-1-yl)-N-((3-nitro-4-(((tetrahydro-2H-pyran-4-yl)methyl)amino)phenyl)sulfonyl)benzamide] | 0.02 to 0.2 | 0.5 to 5
2 | O=C(NS(=O)(=O)c1ccc(NCC2CCOCC2)c([N+](=O)[O-])c1)c1ccc(N2CCN(C3CCCCc4c(Cl)cccc43)CC2)cc1Oc1cnc2[nH]ccc2c1 (stereo not shown) [Compound 27, 2-((1H-pyrrolo[2,3-b]pyridin-5-yl)oxy)-4-(4-(1-chloro-6,7,8,9-tetrahydro-5H-benzo[7]annulen-5-yl)piperazin-1-yl)-N-((3-nitro-4-(((tetrahydro-2H-pyran-4-yl)methyl)amino)phenyl)sulfonyl)benzamide] | < 0.02 | < 0.05
3 | Cc1nnc2n1CC(CNc1ccc(S(=O)(=O)NC(=O)c3ccc(N4CCN(C5CCCCc6c(Cl)cccc65)CC4)cc3Oc3cnc4[nH]ccc4c3)cc1[N+](=O)[O-])CC2 (stereo not shown) [Compound 57, 2-((1H-pyrrolo[2,3-b]pyridin-5-yl)oxy)-4-(4-(1-chloro-6,7,8,9-tetrahydro-5H-benzo[7]annulen-5-yl)piperazin-1-yl)-N-((4-(((3-methyl-5,6,7,8-tetrahydro-[1,2,4]triazolo[4,3-a]pyridin-6-yl)methyl)amino)-3-nitrophenyl)sulfonyl)benzamide] | < 0.02 | 0.5 to 5
4 | Nc1cccc2c1CCCCC2N1CCN(c2ccc(C(=O)NS(=O)(=O)c3ccc(NCC4CCOCC4)c([N+](=O)[O-])c3)c(Oc3cnc4[nH]ccc4c3)c2)CC1 (stereo not shown) [Compound 58, 2-((1H-pyrrolo[2,3-b]pyridin-5-yl)oxy)-4-(4-(1-amino-6,7,8,9-tetrahydro-5H-benzo[7]annulen-5-yl)piperazin-1-yl)-N-((3-nitro-4-(((tetrahydro-2H-pyran-4-yl)methyl)amino)phenyl)sulfonyl)benzamide] | < 0.02 | 0.5 to 5
5 | CC(=O)Nc1cccc2c1CCCCC2N1CCN(c2ccc(C(=O)NS(=O)(=O)c3ccc(NCC4CCOCC4)c([N+](=O)[O-])c3)c(Oc3cnc4[nH]ccc4c3)c2)CC1 (stereo not shown) [Compound 59, 2-((1H-pyrrolo[2,3-b]pyridin-5-yl)oxy)-4-(4-(1-acetamido-6,7,8,9-tetrahydro-5H-benzo[7]annulen-5-yl)piperazin-1-yl)-N-((3-nitro-4-(((tetrahydro-2H-pyran-4-yl)methyl)amino)phenyl)sulfonyl)benzamide] | < 0.02 | > 5
6 | O=C(NS(=O)(=O)c1ccc(NCC2CCOCC2)c([N+](=O)[O-])c1)c1ccc(N2CC3(CCN(C4CCCc5ccccc54)CC3)C2)cc1Oc1cnc2[nH]ccc2c1 (stereo not shown) [Compound 92, 2-((1H-pyrrolo[2,3-b]pyridin-5-yl)oxy)-N-((3-nitro-4-(((tetrahydro-2H-pyran-4-yl)methyl)amino)phenyl)sulfonyl)-4-(7-(1,2,3,4-tetrahydronaphthalen-1-yl)-2,7-diazaspiro[3.5]nonan-2-yl)benzamide] | 0.02 to 0.2 | 0.5 to 5

Further lines, with some results ahead:

Row | IC50 (BCL-2) [µM] | Structure (SMILES) | GI50 (DOHH2 cells) [µM]
7 | < 0.02 | O=C(NS(=O)(=O)c1ccc(NCC2CCOCC2)c([N+](=O)[O-])c1)c1ccc(N2CCN(C3CCCCc4ccccc43)CC2)cc1Oc1cnc2[nH]ccc2c1 (stereo not shown) [Compound 6, 2-((1H-pyrrolo[2,3-b]pyridin-5-yl)oxy)-N-((3-nitro-4-(((tetrahydro-2H-pyran-4-yl)methyl)amino)phenyl)sulfonyl)-4-(4-(6,7,8,9-tetrahydro-5H-benzo[7]annulen-5-yl)piperazin-1-yl)benzamide] | 0.05 to 0.5
8 | 0.02 to 0.2 | O=C(NS(=O)(=O)c1ccc(NCC2CCOCC2)c([N+](=O)[O-])c1)c1ccc(N2CCN(C3CCOc4ccccc43)CC2)cc1Oc1cnc2[nH]ccc2c1 (stereo not shown) [Compound 17, 2-((1H-pyrrolo[2,3-b]pyridin-5-yl)oxy)-4-(4-(chroman-4-yl)piperazin-1-yl)-N-((3-nitro-4-(((tetrahydro-2H-pyran-4-yl)methyl)amino)phenyl)sulfonyl)benzamide] | 0.5 to 5
9 | 0.02 to 0.2 | O=C(NS(=O)(=O)c1ccc(NCC2CCOCC2)c([N+](=O)[O-])c1)c1ccc(N2CCN(C3CCCCc4ccc(-c5ccccc5)cc43)CC2)cc1Oc1cnc2[nH]ccc2c1 (stereo not shown) [Compound 22, 2-((1H-pyrrolo[2,3-b]pyridin-5-yl)oxy)-N-((3-nitro-4-(((tetrahydro-2H-pyran-4-yl)methyl)amino)phenyl)sulfonyl)-4-(4-(3-phenyl-6,7,8,9-tetrahydro-5H-benzo[7]annulen-5-yl)piperazin-1-yl)benzamide] | 0.5 to 5
10 | < 0.02 | O=C(NS(=O)(=O)c1ccc(NCC2CCOCC2)c([N+](=O)[O-])c1)c1ccc(N2CCN(C3CCCOc4ccccc43)CC2)cc1Oc1cnc2[nH]ccc2c1 (stereo not shown) [Compound 36, 2-((1H-pyrrolo[2,3-b]pyridin-5-yl)oxy)-N-((3-nitro-4-(((tetrahydro-2H-pyran-4-yl)methyl)amino)phenyl)sulfonyl)-4-(4-(2,3,4,5-tetrahydrobenzo[b]oxepin-5-yl)piperazin-1-yl)benzamide] | 0.05 to 0.5
11 | 0.02 to 0.2 | O=C(NS(=O)(=O)c1ccc(NCC2CCOCC2)c([N+](=O)[O-])c1)c1ccc(N2CCN(C3CCCCc4c(C5CCCC5)cccc43)CC2)cc1Oc1cnc2[nH]ccc2c1 (stereo not shown) [Compound 55, 2-((1H-pyrrolo[2,3-b]pyridin-5-yl)oxy)-4-(4-(1-cyclopentyl-6,7,8,9-tetrahydro-5H-benzo[7]annulen-5-yl)piperazin-1-yl)-N-((3-nitro-4-(((tetrahydro-2H-pyran-4-yl)methyl)amino)phenyl)sulfonyl)benzamide] | > 5
12 | < 0.02 | CS(=O)(=O)N1CCc2ccccc2C(N2CCN(c3ccc(C(=O)NS(=O)(=O)c4ccc(NCC5CCOCC5)c([N+](=O)[O-])c4)c(Oc4cnc5[nH]ccc5c4)c3)CC2)C1 (stereo not shown) [Compound 60, 2-((1H-pyrrolo[2,3-b]pyridin-5-yl)oxy)-4-(4-(3-(methylsulfonyl)-2,3,4,5-tetrahydro-1H-benzo[d]azepin-1-yl)piperazin-1-yl)-N-((3-nitro-4-(((tetrahydro-2H-pyran-4-yl)methyl)amino)phenyl)sulfonyl)benzamide] | > 5
13 | < 0.02 | O=C(NS(=O)(=O)c1ccc(NCC2CCOCC2)c([N+](=O)[O-])c1)c1ccc(N2CC3(CCN(C4CCCc5ccccc54)C3)C2)cc1Oc1cnc2[nH]ccc2c1 (stereo not shown) [Compound 91, 2-((1H-pyrrolo[2,3-b]pyridin-5-yl)oxy)-N-((3-nitro-4-(((tetrahydro-2H-pyran-4-yl)methyl)amino)phenyl)sulfonyl)-4-(6-(1,2,3,4-tetrahydronaphthalen-1-yl)-2,6-diazaspiro[3.4]octan-2-yl)benzamide] | 0.5 to 5
14 | 0.02 to 0.2 | O=C(NS(=O)(=O)c1ccc(NCC2CCOCC2)c([N+](=O)[O-])c1)c1ccc(N2CCC3(CC2)CN(C2CCCCc4ccccc42)C3)cc1Oc1cnc2[nH]ccc2c1 (stereo not shown) [Compound 93, 2-((1H-pyrrolo[2,3-b]pyridin-5-yl)oxy)-N-((3-nitro-4-(((tetrahydro-2H-pyran-4-yl)methyl)amino)phenyl)sulfonyl)-4-(2-(6,7,8,9-tetrahydro-5H-benzo[7]annulen-5-yl)-2,7-diazaspiro[3.5]nonan-7-yl)benzamide] | 0.5 to 5
